Laboratory results from patent publication US11542304B2, “Multimeric bicyclic peptide ligands” (BicycleTx Limited, priority 2018, dated 2023).
Starred links: 1 amine or outer side, 2 acyl side, 3 side chain; linkers in the order of their positions; H or OH if unused. Positions of bridges follow the written chain, without caps; N, C: chain ends. Non-standard residues stand in square brackets, D forms with d. Chains are numbered I, II in the order given. X1 = O=C(CCOCCN(CCOCCC(=O)NCCOCCOCCOCCOCCOCCOCCOCCOCCOCCOCCn1cc(CCC(=O)[*:2])nn1)CCOCCC(=O)NCCOCCOCCOCCOCCOCCOCCOCCOCCOCCOCCn1cc(CCC(=O)[*:3])nn1)NCCOCCOCCOCCOCCOCCOCCOCCOCCOCCOCCn1cc(CCC(=O)[*:1])nn1; TATA = O=C(CC[*:1])N1CN(C(=O)CC[*:2])CN(C(=O)CC[*:3])C1; Nle = CCCC[C@H](N)C(=O)O

Tests used:
[1] = Pharmacokinetics of Bicycle multimers in CD-1 mice; settings: 5 mg/kg IV, male CD-1 mice; FIGS. 5A and 5B
Protocol: Male CD-1 mice were dosed with 5 mg/kg of each Bicycle multimer formulated in 25 mM Histidine HCl, 10% sucrose pH 7 via tail vein injection. Serial bleeding (about 80 μL blood/time point) was performed via submandibular or saphenous vein at each time point. All blood samples were immediately transferred into prechilled microcentrifuge tubes containing 2 μL K2-EDTA (0.5M) as anti-coagulant and placed on wet ice. Blood samples were immediately processed for plasma by centrifugation at approximately 4° C., 3000 g. The precipitant including internal standard was immediately added into the plasma, mixed well and centrifuged at 12,000 rpm, 4° C. for 10 minutes. The supernatant was transferred into pre-labeled polypropylene microcentrifuge tubes, and then quick-frozen over dry ice. The samples were stored at 70° C. or below as needed until analysis. 7.5 μL of the supernatant samples were directly injected for LC-MS/MS analysis using an Orbitrap Q Exactive in positive ion mode to determine the concentrations of Bicycle multimer. Plasma concentration versus time data were analyzed by non-compartmental approaches using the Phoenix WinNonlin 6.3 software program. C0, Cl, Vdss, T1/2, AUC(0-last), AUC(0-inf), MRT(0-last), MRT(0-inf) and graphs of plasma concentration versus time profile were reported.

CD137 = CD137 (Homo sapiens, UniProt Q07011); assay: CD137 Promega reporter cell activity assay (NF-κB luciferase in Jurkat cells); settings: Average fold induction for CD137L = 4.0
CD137, sequence (Q07011 24-255): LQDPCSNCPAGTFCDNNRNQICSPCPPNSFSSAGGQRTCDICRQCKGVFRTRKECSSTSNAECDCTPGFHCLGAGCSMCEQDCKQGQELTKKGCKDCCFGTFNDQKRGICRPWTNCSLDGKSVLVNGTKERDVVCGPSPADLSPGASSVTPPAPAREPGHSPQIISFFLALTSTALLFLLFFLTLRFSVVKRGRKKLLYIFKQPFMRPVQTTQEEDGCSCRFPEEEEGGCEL
Protocol: CD137 binding multimers were evaluated for CD137 using a Reporter cell activity assay that uses NF-κB luciferase luminescence as a read-out of CD137 activation in Jurkat cells. […] Samples were diluted at concentration expected to give the maximum fold induction and then titrated down in 1/3 dilution series or 1/10 dilution series in a sterile 96 well-plate. […] 50 μl cells were added per well to white cell culture plates.
Cells were co-incubated together with agonists for 6 h at 37° C., 5% CO2. After 6 h Bio-Glo™ was thawed and the assay developed at room-temperature. 75 ul Bio-Glo™ was added per well and incubated for 5-10 min. Luciferase signal was read on a Pherastar plate-reader using MARS program. Data was analysed by transforming the data to x=log (X), then plotting log (agonist) vs. response variable slope (4 parameters) to calculate EC50 values.

[2] = clinical testing, cited from earlier work

Row | Substance | systemic elimination (plasma concentration after IV dosing) [1] | Average Relative Fold Induction relative to CD137L (CD137) | dose up to which hepatotoxicity was not observed ([2]; solid tumors) | single agent activity [2]
1 | I: Ac-ACIEKGQYCFADPY[Nle]CA-NH2 / II: Ac-ACIEKGQYCFADPY[Nle]CA-NH2 / III: Ac-ACIEKGQYCFADPY[Nle]CA-NH2 (linker I:2-I:9-I:16, II:2-II:9-II:16, III:2-III:9-III:16 via TATA; linker I:5-II:5-III:5 via X1) [BCY7835] | retain the property of rapid systemic elimination | 1.04 |  | 
2 | utomilumab |  |  | up to 5 mg/kg | little or no single agent activity
